According to patent US20140228286A1, “SPECIFIC PDE4B-INHIBITORS FOR THE TREATMENT OF DIABETES MELLITUS” (BOEHRINGER INGELHEIM INTERNATIONAL GMBH, priority 2013, published 2014):
pIC50: −log10 of the molar value.

How the values were obtained:
Sprague Dawley (SD) rats = experiment: Oral glucose tolerance test in overnight fasted male Sprague Dawley rats; format: in vivo, rat; details: 60 min before oral glucose load 2 g/kg, versus vehicle control
Description: An oral glucose tolerance test is performed in overnight fasted male Sprague Dawley (SD) rats (RjHan:SD), with a weight of 320-350 g. A pre-dose blood sample is obtained by tail bleed. Blood glucose is measured with a glucometer, and the animals are randomized for blood glucose (n=6/group). Subsequently, the groups receive a single oral administration of either vehicle alone (0.5% aqueous hydroxyethyl-cellulose) or vehicle containing one of the PDE4 inhibitors. The animals receive an oral glucose load (2 g/kg) 60 min after compound administration. Blood glucose is measured in tail blood 15 min, 30 min, 60 min, 90 min, and 120 min after the glucose challenge. Glucose excursion is quantified by calculating the reactive glucose AUC (area under the curve). The data are presented as mean±SEM (standard error of mean). The two-sided unpaired Student t-test is used for statistical comparison of the control group and the active groups.
“Cpd. A” is the PDE4 inhibitor Example 1.35 at a dose of 1 and 3 mg/kg. “Cpd. B” is the PDE4 inhibitor Example 1.46 at a dose of 1 and 3 mg/kg. P values versus control are indicated by symbols above the bars (*, p<0.05). Cpd. A (=Example 1.35) reduces glucose excursion by 13.2 (p=0.09) and 15.0% (p=0.11) with a dose of 1 and 3 mg/kg, respectively. Cpd. […] Cpd.

PDE4B = target: T1, PDE4B (Homo sapiens, UniProt Q07343); experiment: PDE4B Scintillation Proximity (SPA) Assay; format: biochemical; details: PDE4B active site fragment amino acids 152-484; [3H]cAMP; 30° C., one hour; read-out: Experimentally determined IC50-value for PDE4B inhibition
T1 construct: active site fragment comprising the amino acids 152-484
T1 sequence (Q07343 324-656): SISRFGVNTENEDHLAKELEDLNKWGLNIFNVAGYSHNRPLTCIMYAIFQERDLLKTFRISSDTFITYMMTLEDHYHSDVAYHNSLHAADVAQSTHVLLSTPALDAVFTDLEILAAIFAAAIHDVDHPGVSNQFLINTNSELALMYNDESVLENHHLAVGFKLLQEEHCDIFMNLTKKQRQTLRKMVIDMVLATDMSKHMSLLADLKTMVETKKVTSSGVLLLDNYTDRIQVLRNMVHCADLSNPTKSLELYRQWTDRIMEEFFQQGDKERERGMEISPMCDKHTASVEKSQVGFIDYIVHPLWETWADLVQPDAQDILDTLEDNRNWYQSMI
Source text: The IC50-values of the compounds of the invention (Examples 1.1 to 1.47) with respect to their PDE4B-inhibiting ability have been determined with a Scintillation Proximity (SPA) Assay (GE Healthcare, No. TRKQ7090). The Scintillation Proximity (SPA) Assay is based on the detection of the different affinities of the cyclic 3′-5′adenosine monophosphate (cAMP, low affinity) and the linear 5′-adenosine monophosphate (AMP, high affinity) to yttrium-silicate-scintillator beads. The cAMP-specific phosphodiesterase (PDE) PDE4B cleaves the 3′-phosphodiester bond of the tritium-labelled-[^3H]cAMP to the [^3H]5′-AMP. This [^3H]5′-AMP associates with the scintillator beads because of their higher affinity and causes scintillations (light flashes) which can be measured in a Wallac Microbeta Scintillation Counter.
10 μl of a [^3H]cAMP-solution (0.05 μCi in H2O, 10-30 Ci/mmol) are added to 89 μl of a PDE4B-enzyme-solution (active site fragment comprising the amino acids 152-484; 0.15-0.18 ng) in assay buffer (50 mM Tris HCl pH 7.5; 8.3 mM MgCl2; 1,7 mM ethylene glyclol tetraacetic acid (EGTA); 0.25 mg/ml bovine serum albumin (BSA)) and this mixture is incubated at 30° C. for one hour
a) without the compound to be tested (in the presence of 1 μl dimethylsulfoxide (DMSO), corresponding to 1% DMSO) and b) in the presence of the compound to be tested in a concentration of 125 μM, 25 μM, 5 μM, 1 μM, 200 nM, 40 nM, 8 nM, 1.6 nM, 0.32 nM, 0.064 nM, 0.0128 nM (dilution series in 5er-steps beginning from 125 μM until 0.0128 nM, in the presence of 1% DMSO).
After this incubation the reaction is stopped by the addition of 50 μl of bead-solution (500 mg beads/35 ml H2O, 18 mM zinc sulfate). In the following 45 minutes the beads have the opportunity to form a sediment. After that the scintillations are measured in the scintillation counter. If the tested compound is able to inhibit the enzymatic activity of the PDE4B-enzyme, less [^3H]AMP depending on the concentration of the tested compound is produced and less scintillations are measurable. […] The IC50-value stands for the compound concentration at which the PDE4B enzyme activity is inhibited to a half maximal value. Therefore the lower the IC50-value is the better is the PDE4B inhibition.

Compound	reduces glucose excursion (reactive glucose AUC) (Sprague Dawley (SD) rats; single oral dose 1 mg/kg) [%]	reduces glucose excursion (reactive glucose AUC) (Sprague Dawley (SD) rats; single oral dose 3 mg/kg) [%]	pIC50 (PDE4B)
[O-][S+]1CCc2nc(N3CCC(c4ncc(Cl)cn4)CC3)nc(NC3(CO)CCC3)c21 (centres unmarked) [Example 1.46, (1-{2-[4-(5-Chloro-pyrimidin-2-yl)-piperidin-1-yl]-5-oxo-6,7-dihydro-5H-5λ^4-thieno[3,2-d]pyrimidin-4-yl-amino}-cyclobutyl)-methanol]	26.8	18.4	
[O-][S+]1CCc2nc(N3CCC(Oc4ccc(Cl)cc4)CC3)nc(NC3CCOCC3)c21 (centres unmarked) [Example 1.35, {2-[4-(4-chlorophenoxy)-piperidin-1-yl]-5-oxo-6,7-dihydro-5H-5λ^4-thieno[3,2-d]pyrimidin-4-yl}-(tetrahydropyran-4-yl)-amine]	13.2	15.0	8.41
